Assays:
[1] = tested on: isolated-perfused mouse lungs preconstricted with U46619; test: Pulmonary vasodilator response to NO inhalation in isolated, perfused and ventilated mouse lungs preconstricted with U46619; assay type: in vivo; conditions: for impairment of responsiveness to NO inhalation: wild-type mice treated with endotoxin, scavengers of reactive oxygen and nitrogen species; for vasodilator response to NO inhalation, compared to that in control mice: endotoxin-challenged (LPS 50 mg/kg i.p.) wild-type mice treated with NAC 150 mg/kg i.p. immediately and 3.5 hours later, lungs isolated 16 hours after endotoxin
Procedure: Isolated, Perfused, and Ventilated Mouse Lung Model Mice were killed by intraperitoneal injection of pentobarbital sodium (200 mg/kg body weight) and placed in a 37° C. water-jacketed chamber (Isolated Perfused Lung Size 1 Type 839; Hugo-Sachs Elektronik, March-Hugstetten, Germany). The trachea was isolated and intubated, and the lungs were ventilated with 21% O2, 6% CO2 and 73% N2 using a volume-controlled ventilator (model 687; Harvard Apparatus, South Natick, Mass.) at a ventilatory rate of 85 breaths/min and 2 cm H2O end-expiratory pressure. The tidal volume was adjusted to provide a peak inspiratory pressure of 10 cm H2O throughout each study. The lungs were exposed via a midline sternotomy, and a ligataure was placaed around the aorticopulmonary outflow tract. After injection of 10 IU heparin into the right ventricle, the pulmonary artery was cannulated with a stainless steel cannula (1 mm ID) via the right ventricle. The pulmonary venous effluent was drained via a stainless steel cannula (1 mm ID) placed through the apex of the left ventricle across the mitral valve and into the left atrium. Left atrial pressure was maintained at 2 mmHg. Lungs were perfused at a constant flow (50 ml. kg body weight^−1. min^−1; Ismatec Reglo-Analogue roller pump; Laboratoriumstechnik GmbH, Wertheim-Mondfeld, Germany) with a non-recirculating system at 37° C. The perfusate used was Hanks' Balanced Salt Solution (GibcoBRL, Grand Island, N.Y.) containing 1.26 mM CaCl2, 5.33 mM KCl, 0.44 mM KH2PO4, 0.50 mM MgCl2, 0.41 mM MgSO4, 138.0 mM NaCl, 4.0 mM NaHCO3, 0.3 mM Na2HPO4, and 5.6 mM glucose. Bovine serum albumin, 5%, and dextran, 5% (both from Sigma Chemical Co., St. Louis, Mo.), were added to the perfusate to prevent pulmonary edema, in the isolated, perfused, and ventilated rat lung, essentially as described in Holzmann et al., 1996, Am. J. Physiol. 271:L981-L986. Indomethacin, […] (Sigma Chemical Co.), and 1 mM L-NAME (Sigma Chemical Co.) were added to the perfusate to inhibit endogenous prostaglandin and NO synthesis, respectively. Sodium bicarbonate was added to adjust the perfusate pH to 7.34-7.43.
Pulmonary artery pressure (PAP) and left atrial pressure were measured via saline-filled membrane pressure transducers (Argon, Athens, Tex.) connected to a side port of the inflow and outflow cannulae, respectively. Airway pressure (Paw) was measured using a differential pressure transducer (model MP-45-32-871; Validyne Engineering Corp., Northridge, Calif.) connected to the inspiratory limb just before the Y piece. Pressure transducers were connected to a biomedical amplifier (Hewlett Packard 7754B, Andover, Mass.), and data were recorded at 150 Hz on a personal computer using an analog-to-digital interface with a data acquisition system (DI-220; Dataq Instruments, Akron, Ohio). The system was calibrated before each experiment.
For NO inhalation, NO gas (800 or 80 ppm NO in nitrogen, Airco, Murray Hill, N.J.) was blended (Oxygen Blender; Bird Corporation, Palm Springs, Calif.) with oxygen, carbon dioxide, and nitrogen to achieve a final concentration of 21% O2, 6% CO2, and the desired NO concentration. NO and higher oxidative states of NO (NOx; CLD 700 AL; Eco Physics, Dürmten, Switzerland), oxygen (Hudson Ventronics Ddivision, Temecula, Calif.), and carbon dioxide (Datex CO2 monitor; Puritan-Bennett Corpration, Los Angeles, Calif.) concentrations were monitored continuously.
Pulmonary Vascular Response to NO inhalation after Lipopolysaccharide Challenge Wild-type mice and NOS2-deficient mice were injected intraperitoneally with 50 mg/kg body weight Escherichia coli 0111:B4 lipopolysaccharide (LPS; Difco Laboratories, Detroit, Mich.) dissolved in saline 16 h before isolated lung perfusion. This time point was chosen based on previous studies in rats (Holzmann et al., 1996, Am. J. Physiol. 271:L981-L986). Untreated wild-type and NOS2-deficient mice served as controls. […]

[2] = tested on: hypoxic pulmonary vasoconstriction (HPV) in mice; test: Change in incremental left pulmonary vascular resistance (ΔiLPV) in response to LMBO, a measure of HPV (Example 2, FIG. 8); assay type: in vivo, mouse
Procedure: We performed experiments on the change in incremental left pulmonary vascular resistance, ΔiLPV, in response to LMBO—a measure of HPV. HPV was impaired in wild-type mice challenged with endotoxin (FIG. 8). HPV was preserved in endotoxin-challenged mice treated with N-acetylcysteine at 500 mg/kg, but not 150 mg/kg (intraperitoneal administration simultaneously with endotoxin).

[3] = tested on: hypoxic pulmonary vasoconstriction (HPV) in mice; test: Percent increase in left pulmonary vascular resistance (LPVR) after LMBO, one-lung hypoxia model (Example 3, FIG. 13); assay type: in vivo, mouse; conditions: endotoxin-challenged wild-type mice
Procedure: Wild-type (SV129B6/F1) mice and 5LO-deficient mice were anesthetized and studied at thoracotomy. Left pulmonary artery flow (QLPA) and pulmonary (PPA) and systemic (PSA) artery pressures were measured continuously.
HPV was assessed as the percent increase in left pulmonary vascular resistance (the slope of the P/Q-relationship, LPVR) after left main bronchus occlusion (LMBO). LMBO increased LPVR by 99±13% in 5LO deficient mice, and by 100±11% in wild-type mice.

[4] = tested on: pulmonary vasculature of wild-type mice; test: Pulmonary vasoconstrictor response to intravenous angiotensin II; assay type: in vivo, mouse; conditions: for PVR: 5.0 μg/kg per minute angiotensin II
Procedure: Group 6: pulmonary vascular response to increasing doses of intravenous angiotensin II. SV129/B6F1 wild-type mice treated with endotoxin (n=5) or with saline (n=3) were studied 22 hours after the challenge.
Infusion of angiotensin II. Increasing doses of angiotensin II (0.05, 0.5, and 5.0 ng/g bw per minute) dissolved in sterile normal saline were infused via the central venous catheter using an infusion pump (Pump 11; Harvard Apparatus Co., South Natick, Mass.). PLA, PPA, PSA, and QLTAF were continuously measured.

**Q.** For [Cl-].[Mn+3].[O-]c1ccccc1C=NCCN=Cc1ccccc1[O-] [EUK-8], which “impairment of responsiveness to NO inhalation” value (from here on “impairment … to NO inhalation”) [1] is on record?
**A.** prevented impairment of responsiveness to NO inhalation

**Q.** And the “HPV (ΔiLPV in response to LMBO)” value ([2]; endotoxin-challenged mice treated with EUK-8)?
**A.** completely preserved

**Q.** With CN(C)C(=O)CCSC(SCCC(=O)O)c1cccc(/C=C/c2ccc3ccc(Cl)cc3n2)c1 (stereo not drawn) [MK571] as the molecule, how does the “HPV (LMBO-induced increase in left PVR)” value [3] read?
**A.** preserved

**Q.** Which “HPV (LMBO-induced increase in left PVR)” value [3] does the source give for CC(C)c1ccc2c(c1)c(SC(C)(C)C)c(CC(C)(C)C(=O)O)n2Cc1ccc(Cl)cc1 [MK886] here?
**A.** preserved

**Q.** With CC(=O)N[C@@H](CS)C(=O)O [N-acetylcysteine] as the molecule, how does the “vasodilator response to NO inhalation, compared to that in control mice” value ([1]; 0.4 ppm NO) read?
**A.** 75±14%

**Q.** What about the “vasodilator response to NO inhalation, compared to that in control mice” value ([1]; 4.0 ppm NO) of the same molecule?
**A.** 103±15%

**Q.** What about the “vasodilator response to NO inhalation, compared to that in control mice” value ([1]; 40 ppm NO) of the same molecule?
**A.** 91±7%

**Q.** And the “responsiveness to NO inhalation after prolonged NO exposure” value ([1]; endotoxin-challenged, NAC-treated mice exposed to 20 ppm NO for 16 hours)?
**A.** preserved

**Q.** What about the “lipopolysaccharide-induced attenuation of vasoreactivity to NO inhalation (FIG. 5)” value ([1]; two doses of 150 mg/kg i.p., simultaneously with lipopolysaccharide and 3.5 hours later) of the same molecule?
**A.** completely protected

**Q.** What about the “impairment … to NO inhalation” value [1] of the same molecule?
**A.** prevented impairment of responsiveness to NO inhalation

**Q.** What about the “HPV (ΔiLPV in response to LMBO)” value ([2]; endotoxin-challenged mice, 150 mg/kg intraperitoneally simultaneously with endotoxin) of the same molecule?
**A.** not

**Q.** And the “HPV (ΔiLPV in response to LMBO)” value ([2]; endotoxin-challenged mice, 500 mg/kg intraperitoneally simultaneously with endotoxin)?
**A.** preserved

**Q.** What about the HPV ([2]; endotoxin-challenged wild-type mice treated with N-acetylcysteine and exposed to 20 ppm NO for 22 hours) of the same molecule?
**A.** not impaired

**Q.** Which “impairment … to NO inhalation” value [1] does the source give for CNC(=O)NC [dimethylurea] here?
**A.** prevented impairment of responsiveness to NO inhalation

**Q.** For “angiotensin II: vasoconstrictor infused intravenously to test pulmonary vascular contractile function (DRVYIHPF; Angiotensin-2; UniProt P01019 25-32, looked up)”, which PVR ([4]; endotoxin-challenged wild-type mice, baseline 55±11) is on record?
**A.** 174±40 mmHg·min·g·mL^−1

**Q.** And the PVR ([4]; saline-treated wild-type mice without endotoxin, baseline 74±24)?
**A.** 184±25 mmHg·min·g·mL−1

**Q.** What about the “PLA in response to angiotensin II infusion” value ([4]; saline-treated and endotoxin-treated wild-type mice (either group)) of the same molecule?
**A.** did not change

B1: catalase: scavenger of reactive oxygen and nitrogen species (anti-ROS agent) (protein, UniProt P04040 2-527, looked up)
Catalase: ADSRDPASDQMQHWKEQRAAQKADVLTTGAGNPVGDKLNVITVGPRGPLLVQDVVFTDEMAHFDRERIPERVVHAKGAGAFGYFEVTHDITKYSKAKVFEHIGKKTPIAVRFSTVAGESGSADTVRDPRGFAVKFYTEDGNWDLVGNNTPIFFIRDPILFPSFIHSQKRNPQTHLKDPDMVWDFWSLRPESLHQVSFLFSDRGIPDGHRHMNGYGSHTFKLVNANGEAVYCKFHYKTDQGIKNLSVEDAARLSQEDPDYGIRDLFNAIATGKYPSWTFYIQVMTFNQAETFPFNPFDLTKVWPHKDYPLIPVGKLVLNRNPVNYFAEVEQIAFDPSNMPPGIEASPDKMLQGRLFAYPDTHRHRLGPNYLHIPVNCPYRARVANYQRDGPMCMQDNQGGAPNYYPNSFGAPEQQPSALEHSIQYSGEVRRFNTANDDNVTQVRAFYVNVLNEEQRKRLCENIAGHLKDAQIFIQKKAVKNFTEVHPDYGSHIQALLDKYNAEKPKNAIHTFVQSGSHLAAREKANL
**Q.** How did the “impairment … to NO inhalation” value [1] turn out when B1 was run?
**A.** prevented impairment of responsiveness to NO inhalation

— patent US6935334B2, “Enhancing therapeutic effectiveness of nitric oxide inhalation” (The General Hospital Corporation, priority 2000, dated 2005)
